What was measured:
RARα [1] = target: T1, RARα (Homo sapiens, UniProt P10276); experiment: ligand binding assay, RARα; details: read-out: RAR Bind. Ki α
T1 sequence (P10276 1-462): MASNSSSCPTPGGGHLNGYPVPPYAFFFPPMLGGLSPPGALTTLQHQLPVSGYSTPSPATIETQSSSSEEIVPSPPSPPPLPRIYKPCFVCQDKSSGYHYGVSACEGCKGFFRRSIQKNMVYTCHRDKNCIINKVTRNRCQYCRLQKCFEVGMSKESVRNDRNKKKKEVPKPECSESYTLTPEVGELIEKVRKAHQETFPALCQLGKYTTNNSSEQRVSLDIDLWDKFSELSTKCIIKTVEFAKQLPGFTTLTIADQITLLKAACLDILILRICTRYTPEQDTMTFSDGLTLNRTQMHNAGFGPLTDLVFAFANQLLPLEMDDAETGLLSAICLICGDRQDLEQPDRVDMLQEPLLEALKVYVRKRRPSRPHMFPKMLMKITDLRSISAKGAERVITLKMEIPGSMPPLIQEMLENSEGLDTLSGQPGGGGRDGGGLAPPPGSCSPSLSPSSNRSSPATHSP
Source text: (§1) A holoreceptor transactivation assay and a ligand binding assay which measure the antagonist/agonist like activity of the compounds of the invention, or their ability to bind to the several retinoid receptor subtypes, respectively, are described in published PCT Application No. WO WO93/11755 (particularly on pages 30–33 and 37–41) published on Jun. 24, 1993, the specification of which is also incorporated herein by reference. […] The results obtained in this assay are expressed in EC50 numbers, as they are also in the chimeric receptor transactivation assay. The results of the ligand binding assay are expressed in Ki numbers. (See Cheng et al. Biochemical Pharmacology Vol. 22 pp 3099–3108, expressly incorporated herein by reference.)
(§2) In Table 1 NA stands for not active at all as an agonist. ND stands for not determined. The first row of numbers pertaining to each compound is the measured EC50 number. […] The third row of numbers pertaining to each compound is the binding Ki number.

RARβ = target: T2, RARβ (Homo sapiens, UniProt P10826); experiment: ligand binding assay, RARβ; details: read-out: RAR Bind. Ki β
T2 sequence (P10826 1-455): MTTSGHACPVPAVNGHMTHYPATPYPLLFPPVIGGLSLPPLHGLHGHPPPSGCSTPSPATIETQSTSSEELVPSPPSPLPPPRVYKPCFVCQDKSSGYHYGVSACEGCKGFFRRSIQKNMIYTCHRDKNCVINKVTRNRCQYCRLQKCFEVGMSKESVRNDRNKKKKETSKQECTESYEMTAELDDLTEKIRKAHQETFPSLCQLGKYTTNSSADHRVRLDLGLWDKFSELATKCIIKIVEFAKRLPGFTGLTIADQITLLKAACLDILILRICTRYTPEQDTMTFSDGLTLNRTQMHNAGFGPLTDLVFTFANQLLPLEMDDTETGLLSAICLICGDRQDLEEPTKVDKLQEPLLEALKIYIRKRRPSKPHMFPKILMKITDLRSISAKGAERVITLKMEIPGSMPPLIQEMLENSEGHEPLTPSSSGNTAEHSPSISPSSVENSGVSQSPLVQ
Source text: as §1, §2

RXRβ = target: T3, RXRβ (UniProt P28704); experiment: ligand binding assay, RXRβ; details: read-out: RXR Bind Ki β
T3 sequence (P28704 1-520): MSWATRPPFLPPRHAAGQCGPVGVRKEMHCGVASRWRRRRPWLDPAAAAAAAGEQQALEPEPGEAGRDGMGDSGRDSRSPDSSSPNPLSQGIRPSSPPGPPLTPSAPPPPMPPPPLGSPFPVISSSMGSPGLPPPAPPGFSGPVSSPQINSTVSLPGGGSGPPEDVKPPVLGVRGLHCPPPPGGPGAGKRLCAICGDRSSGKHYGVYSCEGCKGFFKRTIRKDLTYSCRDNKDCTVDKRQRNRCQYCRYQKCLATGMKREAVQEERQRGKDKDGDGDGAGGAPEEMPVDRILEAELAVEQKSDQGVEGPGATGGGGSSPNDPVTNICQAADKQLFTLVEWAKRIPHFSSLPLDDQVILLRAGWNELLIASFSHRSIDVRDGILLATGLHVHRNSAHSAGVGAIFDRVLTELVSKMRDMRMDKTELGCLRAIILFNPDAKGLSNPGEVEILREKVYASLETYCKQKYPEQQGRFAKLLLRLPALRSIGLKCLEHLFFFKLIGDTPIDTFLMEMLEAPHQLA
Source text: as §1, §2

RARα [2] = target: T1, RARα; experiment: chimeric receptor transactivation assay, RARα; format: cell-based
Source text: The specification of U.S. Pat. No. 5,455,265 is hereby expressly incorporated by reference.
Table 1 discloses the activity of certain exemplary compounds of the invention in the above-described receptor transactivation and binding assays. Particularly, the transactivation data pertaining to activation of the RAR receptors were obtained in the chimeric assay, and the transactivation data pertaining to the activation of RXR receptors were obtained in the holoreceptor assay.
Efficacy in a transactivation assay is expressed as a percentage of the maximum potency attained by the compound compared to a standard which, in this case, is the compound named (2E,4E,1′S,2′S)-3-methyl-5-[2′-methyl-2′-(5,5,8,8-tetramethyl-5,6,7,8-tetrahydro-naphthalen-2-yl)-cyclopropyl]-penta-2,4-dienoic acid.
as §2

RXRγ = target: T4, RXRγ (UniProt P28705); experiment: holoreceptor transactivation assay, RXRγ; format: cell-based
T4 sequence (P28705 1-463): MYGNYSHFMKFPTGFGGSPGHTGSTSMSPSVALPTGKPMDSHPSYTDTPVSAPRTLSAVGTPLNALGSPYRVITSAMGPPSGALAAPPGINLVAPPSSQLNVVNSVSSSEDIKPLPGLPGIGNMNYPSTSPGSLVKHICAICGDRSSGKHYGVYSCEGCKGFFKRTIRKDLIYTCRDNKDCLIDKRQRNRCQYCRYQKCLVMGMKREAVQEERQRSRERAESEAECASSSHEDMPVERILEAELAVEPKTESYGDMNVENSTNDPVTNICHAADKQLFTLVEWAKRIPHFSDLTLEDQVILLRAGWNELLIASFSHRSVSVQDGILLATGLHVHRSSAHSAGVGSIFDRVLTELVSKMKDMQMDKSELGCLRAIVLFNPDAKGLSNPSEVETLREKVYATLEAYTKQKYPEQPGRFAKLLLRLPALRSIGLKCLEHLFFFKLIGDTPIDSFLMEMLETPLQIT
Source text: The results obtained in this assay are expressed in EC50 numbers, as they are also in the chimeric receptor transactivation assay. The results of the ligand binding assay are expressed in Ki numbers.
Particularly, the transactivation data pertaining to activation of the RAR receptors were obtained in the chimeric assay, and the transactivation data pertaining to the activation of RXR receptors were obtained in the holoreceptor assay.
as §2

Row | Structure (SMILES) | Ki (RARα [1]) [µM] | Ki (RARβ) [µM] | Ki (RXRβ) [µM] | EC50 (RARα [2]; NA = not active at all as an agonist, read-out: RAR Trans. EC50 α) [µM] | RAR α efficacy in percentage as compared to the standard compound (RARα [2]; number in brackets) [%] | EC50 (RXRγ; NA = not active at all as an agonist, read-out: RXR Trans. EC50 γ) [µM] | RXR γ efficacy in percentage as compared to the standard compound (RXRγ; number in brackets) [%]
1 | CCCOc1cc2c(cc1\C(C)=C(F)/C=C/C(C)=C/C(=O)O)C(C)(C)CCC2(C)C [Compound 4] | 0.59 | 0.49 | 0.057 | – | – | – | –
2 | CCOc1cc2c(cc1\C(CC)=C(F)/C=C/C(C)=C/C(=O)O)C(C)(C)CCC2(C)C [Compound 2, (2E,4E,6E)-7-(3-Ethoxy-5,5,8,8-tetramethyl-5,6,7,8-tetrahydronaphthalen-2-yl)-6-fluoro-3-methylnona-2,4,6-trienoic acid] | 0.152 | 0.54 | 0.023 | 0.037 | 15 | 0.009 | 18

Source: US7019034B2, “Compositions and methods for reducing serum glucose and triglyceride levels in diabetic mammals” (Allergan, Inc., priority 2003, dated 2006)
